Data as given in BindingDB's records for doi:10.1021/cb600276q (Genentech, 2006).
Where a SMILES comes first, the peptide text is derived from it.

How the values were obtained:
Assay in all cases: Fluorescence Polarization Affinity Measurements.
Conditions in all cases: pH 7.2; 22 °C
[1] = biological target: T1, Baculoviral IAP repeat-containing protein 2 [266-354] (Homo sapiens, UniProt Q13490)
T1 construct: 266-354
Protocol: (§1) Samples for fluorescence polarization affinity measurements were prepared by addition of serial dilutions of target protein to each well containing antagonist and polarization probe in the buffer. Samples were read after 30-min incubation. Fluorescence polarization values were plotted as a function of the antagonist concentration, and the IC50 values were obtained by fitting the data to a four-parameter equation using KaleidaGraph software. Ki values for the antagonists were determined from the IC50 values.

[2] = biological target: T2, Baculoviral IAP repeat-containing protein 3 [252-340] (Homo sapiens, UniProt Q13489)
T2 construct: 252-340
Protocol: as §1

[3] = biological target: T3, Complex of Baculoviral IAP repeat-containing protein 7 [1-159,S150G] and E3 ubiquitin-protein ligase XIAP [336-348] (Homo sapiens, UniProt Q96CA5, S150G)
T3 construct: 1-159; 336-348
Protocol: as §1

[4] = biological target: T4, E3 ubiquitin-protein ligase XIAP [241-356] (Homo sapiens, UniProt P98170)
T4 construct: 241-356
Protocol: as §1

CN[C@@H](C)C(=O)N[C@H]1CCC[C@H]2SC(C)(C)[C@@H](C(=O)Nc3cc(C)nn3-c3ccccc3)N2C1=O [(3R,6S,9aR)-2,2-dimethyl-N-(3-methyl-1-phenyl-1H-pyrazol-5-yl)-6-[(2S)-2-(methylamino)propanamido]-5-oxo-octahydroazepino[2,1-b][1,3]thiazole-3-carboxamide]
Ki [1]: 0.05 µM
Ki [2]: 0.13 µM

CN[C@@H](C)C(=O)N[C@H]1CCC[C@H]2SC[C@@H](C(=O)Nc3cc(C)nn3-c3ccccc3)N2C1=O [(3R,6S,9aR)-N-(3-methyl-1-phenyl-1H-pyrazol-5-yl)-6-[(2S)-2-(methylamino)propanamido]-5-oxo-octahydroazepino[2,1-b][1,3]thiazole-3-carboxamide]
Ki [1]: 0.11 µM
Ki [2]: 0.49 µM

CC(C)[C@H](NC(=O)[C@H](C)N)C(=O)N1CCC[C@H]1C(=O)N[C@@H](Cc1c[nH]c2ccccc12)C(=O)O [L-alanyl-L-valyl-L-prolyl-L-tryptophan] (H-AVPW-OH)
Ki [1]: 0.03 µM
Ki [2]: 0.07 µM
Ki [3]: 0.04 µM
Ki [4]: 0.05 µM
